{"source": "patent EP2601945A1", "about": "(Thomale, Jürgen, priority 2011, dated 2013)", "key": {"[1]": {"test_system": "hearing capability", "test": "BAER hearing test after repetitive cis-platin with or without DPH, or DPH alone", "protocol": "Both groups received additional i.p. injections with saline solution (500 µl) in order to protect the mice from kidney injury. […] Like in the clinical BAER tests for humans, the hearing threshold was determined as the disappearance of wave V. This value was converted into percentage of hearing capability as compared to the untreated controls (dB to %). […] The mean value of the untreated mice was set as 100 %."}, "[2]": {"test_system": "outer hair cells and stria vascularis marginal cells", "test": "Electron microscopy of cochlear cell micromorphology", "type": "in vivo, mice", "conditions": "four times"}, "[3]": {"test_system": "K-rasG12D -induced lung tumors", "test": "Tumor growth in the K-ras mouse model of NSCLC (H&E lung sections, Bioquant image analysis)", "type": "in vivo, mice", "conditions": "for tumor number: not statistically significant", "source_text": "(§1) Oncogenic mutations in the gene encoding the small GTPase K-ras are among the most frequently detected alterations in human lung cancer and approximately 30 % of all cases of human non-small cell lung cancer (NSCLC) carry such an activated K-ras allele with mutations predominantly located in codons 12, 13 or 61. Based on this observation a mouse model for NSCLC was recently established (Sweet-Cordero et al., 2004). The local activation of a silent transgenic K-rasG12D allele in these mice is achieved by intratracheal adenoviral transfection with the Cre recombinase (AdCre). The Cre recombinase cuts out a \"stop\" cassette and allows for expression of the oncogenic K-ras protein in transfected lung cells.\nA cohort of tumor-bearing mice was randomly divided into three subgroups receiving different treatment regimens. Group one (mock treatment control) received i.p. injections once per week with PBS for 4 weeks. […] Mice were sacrificed 5 days after the last dose; lungs were dissected and prepared for paraffin sections. Following H&E staining for morphological structures, the percentage tumor burden, the number of tumors per lung and the average tumor size was determined microscopically (Figure 13 B-D, 14). […] For quantitative analysis the Bioquant image analysis software was used to blindly and randomly quantify the area of all lung tumors and the total lung surface area in 4 lung sections per mouse."}, "[4]": {"test_system": "Pt-GG adducts in DNA of lung tumor cells", "test": "ICA of Pt-GG adducts in primary lung tumor cells", "type": "in vivo, mice", "source_text": "as §1, with “cells. When the initiation is performed at the age of 8 weeks, mice are diagnosed 16 weeks later with lung tumors at 100 % penetrance. The morphology and molecular characteristics of the tumors are very similar to human NSCLC and they respond with regression to chemotherapy with cis-platin.” for “cells.”\nMice bearing K-rasG12D -induced lung tumors were divided into two groups for acute high dose and for chronic low dose treatment. Animals received mocktreatment with PBS or cis-platin alone or cis-platin plus treatment with DPH. […] All mice were sacrificed 24 hours after the last treatment and cochleae, kidneys and lungs were resected for analysis of DNA adduct accumulation."}, "[5]": {"test_system": "hearing capability", "test": "BAER hearing test in XPA-/- and wild type mice after low dose cis-platin", "conditions": "cis-platin cumulative dose 3.5 mg/kg within two weeks, NER-deficient XPA-/- mice"}, "[6]": {"test_system": "Pt-GG adducts in DNA", "test": "Immunocytological assay (ICA) of Pt-GG adducts in kidney and cochlea cells after cis-platin treatment", "type": "in vivo, mice", "conditions": "cis-platin 12.5 mg/kg single dose; measured 2, 16, 48, 72 h"}, "[7]": {"conditions": "cis-platin 7 mg/kg once per week for 4 weeks, DPH 57 mg/kg"}, "[8]": {"conditions": "cis-platin in combination with DPH (57 mg/kg 30 minutes before each dose)"}, "[9]": {"conditions": "cis-platin alone (7 mg/kg once per week for 4 weeks)"}}, "note": "Several values for one entry are separate records, joined by “and”; a condition that tells them apart may be missing. Identical values can stand only once. Entries after “also recorded” stand apart in the source; their conditions may differ."}
{"smiles": "CN(C)CCOC(c1ccccc1)c1ccccc1", "note": "[DPH, diphenhydramine]", "values": [{"measurement": "hearing ability throughout the experiment", "setting": "[1]; DPH alone 57 mg/kg repetitively, no cis-platin", "value": "did not show any difference"}, {"measurement": "hearing sensitivity 24 hours later", "setting": "[1]; DPH alone, single dose 57 mg/kg, BAER repeated 24 hours later", "value": "regained their normal hearing sensitivity"}, {"measurement": "hearing loss", "setting": "[1]; cis-platin cumulated dose 20 mg/kg in combination with DPH 57 mg/kg 30 minutes before each dose", "value": 20, "unit": "%"}, {"measurement": "mean hearing capability, percentage of untreated controls", "setting": "[1]; cis-platin cumulated dose 40 mg/kg plus DPH 57 mg/kg before each dose", "value": "about 70%"}, {"measurement": "micromorphology of outer hair cells and marginal cells", "setting": "[2]; DPH alone 57 mg/kg every second day", "value": "No signs of autophagy or necrosis"}, {"measurement": "micromorphology of outer hair cells and marginal cells", "setting": "[2]; cis-platin 5 mg/kg plus DPH 57 mg/kg every second day", "value": "much less frequent and properly shaped; also recorded: rare autophagosome-like structures"}, {"measurement": "average tumor size, cis-platin alone versus cis-platin plus inhibitor group", "setting": "[3]; [7]", "value": "no difference"}, {"measurement": "mean tumor burden in the lung, cis-platin alone versus in combination with DPH", "setting": "[3]; [7]", "value": "no significant difference"}, {"measurement": "reduction of average tumor size", "setting": "[3]; [8]", "value": "about 50%"}, {"measurement": "reduction of tumor burden", "setting": "[3]; [8]", "value": "about 80%"}, {"measurement": "tumor number", "setting": "[3]; cis-platin plus DPH versus PBS", "value": "reduced"}, {"measurement": "reduction of Pt-GG levels in lung tumor cells by DPH co-treatment", "setting": "[4]; DPH 57 mg/kg 30 minutes prior to cis-platin, acute 10 mg/kg or chronic 4 x 5 mg/kg", "value": "no reduction"}]}
{"smiles": "N.N.[Cl][Pt][Cl]", "note": "[cis-platin, cis-diaminedichloro-platinum(II)]", "values": [{"measurement": "hearing capability, percentage of controls", "setting": "[1]; cis-platin alone 5 mg/kg every second day, cumulated dose 20 mg/kg, BAER 24 h after last treatment", "value": "about 50%"}, {"measurement": "reduction of hearing capacity (BAER)", "setting": "[1]; cis-platin treatment alone, mice (description)", "value": "about 45%"}, {"measurement": "reduction of hearing capability (BAER), XPA-/- mice", "setting": "[5]", "value": "45% and ~50%"}, {"measurement": "time at which Pt-GG levels peaked, OHCs", "setting": "[6]", "value": 16, "unit": "h"}, {"measurement": "time at which Pt-GG levels peaked, marginal cells", "setting": "[6]", "value": 48, "unit": "h"}, {"measurement": "micromorphology of outer hair cells and marginal cells", "setting": "[2]; cis-platin alone 5 mg/kg every second day", "value": "necrotic cell death"}, {"measurement": "reduction of average tumor size", "setting": "[3]; [9]", "value": "about 50%"}, {"measurement": "reduction of tumor burden", "setting": "[3]; [9]", "value": "about 80%"}, {"measurement": "tumor number", "setting": "[3]; cis-platin alone versus PBS", "value": "reduced"}, {"measurement": "adduct levels in lung tumor cells, repetitive treatment compared to single high dose treatment", "setting": "[4]; cis-platin 4 x 5 mg/kg every second day versus 10 mg/kg once", "value": "about two-fold higher"}]}
